Laboratory results: ChEMBL document CHEMBL1201862, “PubChem BioAssay data set” (2004)
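Tested at 5 concentrations; 48 h exposure; 96-well plates; endpoints linearly interpolated, else capped at highest concentration. At the GI50, growth is halved.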 Active and inactive are the calls of the source. Cut-off read from the data, not from the text of the source: active = GI50 up to about 1.1 µM and inactive = higher.

Assays:
Experiment in all cases: inhibition of tumour cell growth, NCI panel, 48 h
SF-539 = test system: SF-539
TK-10 = test system: TK-10
IGROV-1 = test system: IGROV-1
SK-OV-3 = test system: SK-OV-3
SK-MEL-2 = test system: SK-MEL-2
COLO 205 = test system: COLO 205
HCT-116 = test system: HCT-116
SF-295 = test system: SF-295
SF-268 = test system: SF-268
CCRF-CEM = test system: CCRF-CEM
ACHN = test system: ACHN
NCI-H522 = test system: NCI-H522
MOLT-4 = test system: MOLT-4
U-251 = test system: U-251
UACC-62 = test system: UACC-62
A549 = test system: A549
A498 = test system: A498
MDA-MB-231 = test system: MDA-MB-231
PC-3 = test system: PC-3

Measured: GI50

COC(=O)C12OCC34C(CC5C(C)C6=CC(=O)OC6=CC5(C)C3C(O)C1O)OC(=O)C(OC(C)=O)C24 (configuration not stated)
inactive: SF-539 15.2 µM | TK-10 17.4 µM | IGROV-1 27.8 µM | SK-OV-3 29 µM | SK-MEL-2 10.1 µM | COLO 205 8.07 µM | HCT-116 13.7 µM | SF-295 23 µM | SF-268 17 µM | CCRF-CEM 6.37 µM | ACHN 15.7 µM | NCI-H522 8.91 µM | MOLT-4 14.8 µM | U-251 23.5 µM | UACC-62 12.9 µM | A549 19.8 µM | A498 21.2 µM

OC1CCCCCCCCCCC1SCCCCl (configuration not stated)
inactive: SF-539 > 100 µM | TK-10 > 100 µM | IGROV-1 > 100 µM | SK-OV-3 > 100 µM | SK-MEL-2 > 100 µM | COLO 205 > 100 µM | HCT-116 > 100 µM | SF-295 > 100 µM | MDA-MB-231 > 100 µM | SF-268 > 100 µM | ACHN > 100 µM | NCI-H522 > 100 µM | MOLT-4 > 100 µM | U-251 > 100 µM | PC-3 > 100 µM | UACC-62 > 100 µM | A549 > 100 µM | A498 > 100 µM

O=C1CC2(CCCc3sccc32)C(=O)N1 (configuration not stated)
inactive: SF-539 > 100 µM | TK-10 > 100 µM | IGROV-1 > 100 µM | SK-OV-3 > 100 µM | SK-MEL-2 > 100 µM | COLO 205 > 100 µM | HCT-116 > 100 µM | SF-295 > 100 µM | MDA-MB-231 > 100 µM | SF-268 > 100 µM | CCRF-CEM > 100 µM | ACHN > 100 µM | NCI-H522 > 100 µM | MOLT-4 > 100 µM | U-251 > 100 µM | PC-3 > 100 µM | UACC-62 > 100 µM | A549 > 100 µM | A498 > 100 µM

Cc1c(C(=O)O)n(C)c(=O)n(C)c1=O
inactive: SF-539 > 100 µM | TK-10 > 100 µM | IGROV-1 > 100 µM | SK-OV-3 > 100 µM | SK-MEL-2 > 100 µM | COLO 205 > 100 µM | HCT-116 > 100 µM | SF-295 > 100 µM | SF-268 > 100 µM | CCRF-CEM > 100 µM | ACHN > 100 µM | NCI-H522 > 100 µM | MOLT-4 > 100 µM | U-251 > 100 µM | UACC-62 > 100 µM | A549 > 100 µM | A498 > 100 µM

Cc1ccc(S(=O)(=O)n2c3c(c4ccccc42)CCN2C[C@H]([C@H](C)Br)CC[C@@H]32)cc1
inactive: SF-539 > 100 µM | TK-10 > 100 µM | IGROV-1 > 100 µM | SK-OV-3 > 100 µM | SK-MEL-2 > 100 µM | COLO 205 > 100 µM | SF-295 > 100 µM | MDA-MB-231 > 100 µM | SF-268 > 100 µM | CCRF-CEM 86.7 µM | ACHN > 100 µM | NCI-H522 > 100 µM | MOLT-4 67.1 µM | U-251 > 100 µM | PC-3 > 100 µM | UACC-62 > 100 µM | A549 > 100 µM | A498 > 100 µM

O=C(Nc1ccccc1)OCCN=C1c2ccccc2C(Br)C(Br)c2ccccc21 (configuration not stated)
inactive: SF-539 5.07 µM | TK-10 4.48 µM | IGROV-1 6.52 µM | SK-OV-3 15.7 µM | SK-MEL-2 22.2 µM | COLO 205 4.94 µM | HCT-116 3.88 µM | SF-295 17.1 µM | MDA-MB-231 15.2 µM | SF-268 10.5 µM | CCRF-CEM 1.49 µM | ACHN 10.2 µM | NCI-H522 5.37 µM | MOLT-4 2.01 µM | U-251 8.45 µM | PC-3 19.3 µM | UACC-62 11 µM | A549 16 µM | A498 13.2 µM

CC1C[C@]2(C)C(=O)N(c3ccccc3)C(=N)[C@@H]2N(C)c2ccccc21 (some centres not stated)
inactive: SF-539 > 100 µM | TK-10 > 100 µM | IGROV-1 > 100 µM | SK-MEL-2 > 100 µM | COLO 205 > 100 µM | HCT-116 > 100 µM | SF-295 > 100 µM | MDA-MB-231 > 100 µM | SF-268 > 100 µM | CCRF-CEM > 100 µM | ACHN > 100 µM | NCI-H522 > 100 µM | MOLT-4 > 100 µM | PC-3 > 100 µM | UACC-62 > 100 µM | A549 > 100 µM | A498 > 100 µM

C/C(=N\NC(=O)CC(=O)N(C(=O)c1ccc(Cl)cc1)c1ccc(C)cc1)c1ccccc1O
inactive: SF-539 43.4 µM | TK-10 17.6 µM | IGROV-1 > 100 µM | SK-OV-3 > 100 µM | SK-MEL-2 > 100 µM | COLO 205 16.9 µM | HCT-116 62.2 µM | SF-295 7.33 µM | SF-268 28.1 µM | CCRF-CEM 5.45 µM | ACHN 45.6 µM | NCI-H522 36.6 µM | MOLT-4 5.79 µM | U-251 19.6 µM | UACC-62 > 100 µM | A549 35.6 µM | A498 73.6 µM

CSc1ncnc2c1ncn2CCC#N
inactive: SF-539 > 100 µM | TK-10 > 100 µM | IGROV-1 > 100 µM | SK-OV-3 > 100 µM | COLO 205 > 100 µM | HCT-116 > 100 µM | SF-295 > 100 µM | MDA-MB-231 > 100 µM | SF-268 > 100 µM | CCRF-CEM > 100 µM | ACHN > 100 µM | NCI-H522 > 100 µM | MOLT-4 > 100 µM | PC-3 > 100 µM | A549 > 100 µM | A498 > 100 µM

CN1CC[C@]2(C)c3c(O)cccc3CC3CCCC1C32C (some centres not stated)
inactive: SF-539 > 100 µM | TK-10 > 100 µM | IGROV-1 > 100 µM | SK-OV-3 > 100 µM | SK-MEL-2 > 100 µM | COLO 205 > 100 µM | HCT-116 > 100 µM | SF-295 > 100 µM | SF-268 > 100 µM | CCRF-CEM > 100 µM | ACHN > 100 µM | NCI-H522 > 100 µM | MOLT-4 > 100 µM | U-251 > 100 µM | UACC-62 > 100 µM | A549 > 100 µM | A498 > 100 µM

CC1(Br)C(=O)NC(=O)N([C@H]2C[C@H](O)[C@@H](CO)O2)C1N=[N+]=[N-] (some centres not stated)
inactive: SF-539 > 100 µM | TK-10 > 100 µM | IGROV-1 > 100 µM | SK-OV-3 > 100 µM | SK-MEL-2 > 100 µM | COLO 205 > 100 µM | HCT-116 > 100 µM | SF-295 > 100 µM | SF-268 > 100 µM | CCRF-CEM > 100 µM | ACHN > 100 µM | NCI-H522 > 100 µM | MOLT-4 > 100 µM | U-251 > 100 µM | UACC-62 > 100 µM | A549 > 100 µM | A498 > 100 µM
